The values below come from patent US11098203B2, “Polymer coatings” (COMMONWEALTH SCIENTIFIC AND INDUSTRIAL RESEARCH ORGANISATION, priority 2016, dated 2021).

In general, melting point refers to the temperature of the solid-liquid transition. `C=CC(=O)N1C(=C)C(c2ccccc2F)CC1=O` (stereo not shown) [DHP, 5-methylene-1-(prop-2-enoyl)-4-(2-fluorophenyl)-dihydropyrrol-2-one] returned a melting point of 121 to 122 °C.
